Values joined by “and” are separate entries in the source; they are usually repeats but may differ in a detail not shown here. Identical values can stand only once. Counter-ions that a name gives are not always drawn. Like-named read-outs stand apart in the source and are kept apart here.
Key:
[1] = tested on: A549-ACE2 cells; assay: cells; format: cell-based; details: for activation at 10 µM: A549-ACE2, 24 h, read-out: PLD_Effect(%) A549-ACE2
[2] = cited from earlier work
[3] = tested on: Vero-E6 cells; assay: cells; format: cell-based; details: for activation at 10 µM: Chlorocebus sabaeus, Vero C1008, 24 h
[4] = read-out: PLD_Effect(%) VERO-E6
[5] = value is the negative log10 of mol/L

| SMILES | activation at 10 µM [1] [%] | activation at 10 µM [3, 4] [%] | activation at 10 µM ([3]; read-out: PL_Result) [%] | further results |
| --- | --- | --- | --- | --- |
| C=CCN(C)CCCCCCOc1ccc(C(=O)c2ccc(Br)cc2)c(F)c1 [Ro 48-8071 (fumarate)] | 102 | 92.9 | – | Log IC50 (value) [2]: -8.19; pIC50 (value) [2]: 6.65; pchembl_value (Log IC50) [2]: 8.19; pchembl_value (pIC50) [2]: 6.65 |
| CCCOC(C(=O)OC1CCN(C)CC1)(c1ccccc1)c1ccccc1 [Propiverine Hydrochloride] | 102 | 63.8 | – | pchembl_value (AC50) [2]: 6.08 and 6.12; AC50 ([2]; read-out: AC50 (value)): 830 nM and 750 nM |
| COc1cc2c(cc1O)C(CCc1ccc(Cl)cc1)N(C)CC2 (centres unmarked) [Ro-04-5595] | 61 | 64 | – | – |
| COc1cccc(CCc2ccccc2OCC[C@@H]2C[C@@H](O)CN2C)c1 [R-96544] | 92.6 | 90.4 | – | – |
| CNCC[C@H](Oc1cccc2ccccc12)c1cccs1 [DULOXETINE HYDROCHLORIDE] | 91.5 | 92.6 | – | IC50 [2]: 440 nM |
| C[C@@H]1CN(CCCn2c3ccccc3c3ccccc32)C[C@H](C)N1 [rimcazole] | 109 | 99.9 | – | Log IC50 (value) [2]: -6.23; pchembl_value (Log IC50) [2]: 6.23; Ki ([2]; read-out: Ki (value)): 908 nM; pchembl_value (Ki) [2, 5]: 6.04 |
| COc1cc(CN(CCN)C(=O)c2cccs2)ccc1OCc1ccccc1 [M8-B] | 72.2 | 85.4 | – | – |
| O=C(NCCN1CCC2(CC1)C(=O)NCN2c1cccc(F)c1)c1ccc(F)c(F)c1 [ML-298] | 97 | 60.1 | – | – |
| CN1C2CCC1CC(OC(c1ccc(F)cc1)c1ccc(F)cc1)C2 (centres unmarked) | 76.3 | 61.5 | – | Log 1/Ki (value) [2]: 7.86; pchembl_value (Log 1/Ki) [2]: 7.86; pchembl_value (Ki) [2, 5]: 6.84 and 6.07 and 7.94 |
| CCCCCCCCC(=O)N[C@H](CN1CCCC1)[C@H](O)c1ccc2c(c1)OCCO2 [Genz-123346 (free base)] | 81.6 | 63.4 | – | IC50 ([2]; read-out: IC50 (value)): 9 nM; pchembl_value (IC50) [2, 5]: 8.05 |
| CN1CCN(C(=O)CN[C@@H]2C[C@H]2c2ccc(OCc3ccccc3)cc2)CC1 [RN-1] | 70.6 | 87.7 | – | pchembl_value (IC50) [2, 5]: 8.51 and 6.29 |
| C[C@H](N)Cn1ccc2cc(F)c(Cl)cc21 [Ro-60-0175 fumarate] | 82.7 | 50.7 | – | – |
| CC(CN1c2ccccc2Sc2ccccc21)N(C)C (centres unmarked) [PROMETHAZINE HYDROCHLORIDE] | 96.5 | 55.4 | – | AC50 [2]: 30 nM |
| CCn1c2ccccc2c2cc(CNCc3ccccc3OC)ccc21 [HLCL-61 (hydrochloride)] | 83 | 56.5 | – | – |
| CN1CC2c3ccccc3Oc3ccc(Cl)cc3C2C1 (centres unmarked) [asenapine maleate] | 66.1 | 65.2 | – | – |
| O=C(Nc1ncc(SCCN2CCCC2)s1)[C@]1(c2ccc(S(=O)(=O)C3CC3)cc2)C[C@H]1C1CCCCC1 [LY2608204] | 95.6 | 55.8 | – | – |
| Cn1ncc(Cl)c1-c1cc(C(=O)N[C@H](CN)Cc2cccc(F)c2)sc1Cl [Afuresertib] | 77.1 | 69.5 | – | Ki ([2]; read-out: Ki (value)): 0.08 nM; pchembl_value (IC50) [2, 5]: 10.10 and 8.70 and 8.59; pchembl_value (Ki) [2, 5]: 10.10 |
| COc1ccc2[nH]c3c(-c4cccc5ccccc45)nccc3c2c1 [SP-141, reference compound] | – | – | – | result_KI [1]: -11.253 percent effect; result_ITMP [3]: 16.13 percent effect |
| CNCCC(Oc1ccc(C(F)(F)F)cc1)c1ccccc1 (centres unmarked) [FLUOXETINE HYDROCHLORIDE] | 109 | 54.3 | – | pchembl_value (AC50) [2]: 7.03 and 7.53 |
| Cc1nc2ccc(Oc3ccc(F)cc3)cc2c(=O)n1C[C@H]1CCCN(C(C)C)C1 [YIL-781] | 52.7 | 56.3 | – | – |

| SMILES | activation at 10 µM [1] [%] | activation at 10 µM [3, 4] [%] | activation at 10 µM ([3]; read-out: PL_Result) [%] | further results |
| --- | --- | --- | --- | --- |
| COc1cc2c(NC3CCN(C(C)C)CC3)nc(C3CCCCC3)nc2cc1OCCCN1CCCC1 [UNC0638] | 112 | 60.7 | – | pchembl_value (type IC50), Histone-lysine N-methyltransferase, H3 lysine-9 specific 3 [2]: 7.26 and 7.82 and 7.92; pchembl_value (type IC50), Histone-lysine N-methyltransferase, H3 lysine-9 specific 5 [2]: 7.72; pchembl_value (type Ki), Histone-lysine N-methyltransferase, H3 lysine-9 specific 3 [2]: 8.43 and 7.75; IC50 ([2]; read-out: IC50 (value), Histone-lysine N-methyltransferase, H3 lysine-9 specific 3): 55 nM and 15 nM; IC50 ([2]; read-out: IC50 (value), Histone-lysine N-methyltransferase, H3 lysine-9 specific 5): 19 nM; IC50 ([2]; read-out: IC50 (value), Lysine-specific histone demethylase 1): 180 nM; Ki ([2]; read-out: Ki (value), Histone-lysine N-methyltransferase, H3 lysine-9 specific 3): 3.7 nM; pchembl_value (type IC50), Lysine-specific histone demethylase 1 [2, 5]: 6.75 |
| Clc1ccc2c(c1)N=C(N1CCNCC1)c1ccccc1N2 [desmethylclozapine] | 89.5 | 77.7 | – | – |
| CCn1c2ccccc2c2cc(CNC)ccc21 [PhiKan-083] | 83.6 | 73.3 | – | – |
| CCC(C)CNCC(=O)N1CCc2sccc2C1COc1cccc(C)c1 (centres unmarked) [RU-SKI-43] | 85.5 | 57.8 | – | – |
| c1ccc2c(CCNc3ccc(Nc4ccncc4)cc3)c[nH]c2c1 [JNJ 26854165 (Serdemetan)] | 88.4 | 74 | – | – |
| CCCCN(CCCC)CCC(O)c1cc2c(Cl)cc(Cl)cc2c2cc(C(F)(F)F)ccc12 (centres unmarked) [Halofantrine?HCl] | 77.7 | 68.8 | – | – |
| O=C(O[C@H]1CN2CCC1CC2)N(Cc1cc(F)c(F)c(F)c1)c1cccc(F)c1 [Tarafenacin (D-tartrate)] | 91.5 | 71.4 | – | – |
| CN(C)CCCOc1nn(Cc2ccccc2)c2ccccc12 [BENZYDAMINE HYDROCHLORIDE] | 65.2 | 51.2 | – | – |
| CC(COc1ccccc1Cc1ccccc1)N1CCCCC1 (centres unmarked) [Benproperine Phosphate] | 81.6 | 72 | – | – |
| CC(=O)c1ccc2c(c1)N(CCCN1CCN(CCO)CC1)c1ccccc1S2 [ACETOPHENAZINE MALEATE] | 52.6 | 74.4 | – | – |
| CCSc1ccc2c(c1)N(CCCN1CCN(C)CC1)c1ccccc1S2 [thiethylperazine] | 98 | 59.1 | – | – |
| O=C1NC(=O)c2cc(Nc3ccccc3)c(Nc3ccccc3)cc21 [CGP-52411, reference compound] | – | – | -10.9 | result_KI [1]: -10.8674 percent effect; result_ITMP [3]: -7.23 percent effect |
| CN(CCc1ccc(Cl)c(Cl)c1)CCN1CCCC1 [BD-1008] | 62.5 | 51.3 | – | – |
| Cc1[nH]c2ccc(Cl)cc2c1C1=CCNCC1 [EMD-386088] | 79.1 | 96.8 | – | – |
| C[C@@H](O[C@H]1OCCN(Cc2nn[nH]c2CN(C)C)[C@H]1c1ccc(F)cc1)c1cc(C(F)(F)F)cc(C(F)(F)F)c1 [L-760735] | 107 | 71.2 | – | – |
| O=C(CN1C2=NCCN2c2ccccc21)c1ccc(-c2ccccc2)cc1 [CCT-031374] | 69.9 | 53.9 | – | – |
| CCc1cc(Cl)c(OC)c(C(=O)NC[C@@H]2CCCN2CC)c1O [eticlopride, reference compound] | – | – | – | result_KI [1]: 92.2773 percent effect; result_ITMP [3]: 41.39 percent effect |
| CN1CCN(C2=Cc3ccccc3Oc3ccc(Cl)cc32)CC1 [2-CMDO] | 92.5 | 61.3 | – | – |
| O[C@H]([C@H](O)[C@@H]1CO1)[C@H]1CO1 [VAL-083, reference compound] | – | – | – | result_KI [1]: -10.5072 percent effect; result_ITMP [3]: -1.6 percent effect |
| CN(C)CCCN1c2ccccc2Sc2ccc(C(F)(F)F)cc21 [TRIFLUPROMAZINE HYDROCHLORIDE] | – | – | – | AC50 ([2]; read-out: AC50 (value)): 3 nM |

| SMILES | activation at 10 µM [1] [%] | activation at 10 µM [3, 4] [%] | activation at 10 µM ([3]; read-out: PL_Result) [%] | further results |
| --- | --- | --- | --- | --- |
| COc1ccc(/C=C/C(=O)O)cc1 [SPE_K26273521] | – | – | -9.12 | – |
| C=C1C(=O)O[C@@H]2[C@H]3O[C@]3(C)CC/C=C(\C)CC[C@@H]12 [SPE_K28120222] | – | – | -7.03 | – |
| Nc1ncnc2c1c(-c1ccc(Cl)cc1)nn2-c1cccc(-c2cnnn2Cc2cccc(-c3ccccc3)c2)c1 [SPE_K88154110] | – | – | -7.24 | – |
| CCCCCC(=O)O[C@]1(C(C)=O)CCC2C3CCC4=CC(=O)CC[C@]4(C)C3CC[C@@]21C (some centres unmarked) [SPE_A29731977] | – | – | -5.02 | – |
| NCCCCN [SPE_K75282878] | – | – | 0.35 | – |
| CCS(=O)(=O)c1cccc(-c2cc(C(=O)NC3CCN(C)CC3)c(C)c3[nH]c4ncc(C)cc4c23)c1 [SPE_K01683783] | – | – | -6.51 | – |
| CC(C)(C)C(=O)NCCCC(=O)O [SPE_K62264492] | – | – | 5.19 | – |
| COc1cc(N)c(Cl)cc1C(=O)NC1CN2CCC1CC2 (centres unmarked) [SPE_A65615053] | – | – | -14.1 | – |
| CNCCc1c[nH]cn1 [SPE_K64422603] | – | – | -17.3 | – |
| Cn1ncc2c(N3CCOCC3)nc(-c3cccc(O)c3)nc21 [SPE_K15858023] | – | – | -6.72 | – |
| O=C(O)CC1CC(c2ccccc2)=NO1 (centres unmarked) [SPE_A32269193] | – | – | -19.4 | – |
| CCOC(=O)c1ncc2[nH]c3ccc(OCc4ccccc4)cc3c2c1COC [SPE_K33882852] | – | – | -9.36 | – |
| CCOC(=O)[C@@H](N)Cc1ccc(O)c(O)c1 [SPE_K90982969] | – | – | -3.7 | – |
| O=C(NC[C@H](O)CN1CCc2ccccc2C1)c1cc(NC2COC2)ncn1 [SPE_K70446295] | – | – | -3.31 | – |
| CC(C)C(=O)OC[C@H]1O[C@@H](n2ccc(N)nc2=O)[C@](C)(F)[C@@H]1OC(=O)C(C)C [SPE_K69726595] | – | – | -9.49 | – |
| COc1cc(/C=C/C(N)=O)cc(OC)c1OC [SPE_K24507548] | – | – | -1.45 | – |
| CC[C@]1(O)C[C@H]2C[N@](CCc3c([nH]c4ccccc34)[C@@](C(=O)OC)(c3cc4c(cc3OC)N(C)[C@H]3[C@@](O)(C(N)=O)[C@H](O)[C@]5(CC)C=CCN6CC[C@]43[C@@H]65)C2)C1 [SPE_K59753975] | – | – | 7.07 | – |
| CC(=O)Nc1ccc(C(=O)O)cc1 [SPE_K47195926] | – | – | 3.66 | – |

Reference: paper PMC13083723 (Patterns, 2026)
